The series is described as follows: activity coefficient (dimensionless); of the first substance listed, at infinite dilution; xn = mol fraction of the nth substance listed. The settings on record: 101.33 kPa, Liquid, Chromatography, x1 = 0.

± gives the expanded uncertainty stated by the source.

On to `CCCCCCC` [heptane] + C[n+]1ccn(CCO)c1.O=S(=O)([O-])C(F)(F)C(F)(F)C(F)(F)C(F)(F)F, for which the activity coefficient (303 K) turned out to be 53 ± 1.9; the activity coefficient (313 K) was found to be 39.7 ± 1.4; the activity coefficient (323 K) worked out at 30.9 ± 1.1; the activity coefficient (333 K) stood at 23.6 ± 0.86; the activity coefficient (343 K) worked out at 18 ± 0.65; the activity coefficient (353 K) amounted to 13.9 ± 0.5.

`CCCCC` [pentane] + C[n+]1ccn(CCO)c1.O=S(=O)([O-])C(F)(F)C(F)(F)C(F)(F)C(F)(F)F: the activity coefficient reads like this: (303 K) 9.38 ± 0.34; (313 K) 6.94 ± 0.25; (323 K) 5.46 ± 0.2; (333 K) 4.34 ± 0.16; (343 K) 3.39 ± 0.14; (353 K) 2.75 ± 0.12.

Consider `c1ccccc1` [benzene] + C[n+]1ccn(CCO)c1.O=S(=O)([O-])C(F)(F)C(F)(F)C(F)(F)C(F)(F)F, for which the activity coefficient is 4.71 ± 0.17 (303 K); 4.27 ± 0.16 (313 K); 3.85 ± 0.15 (323 K); 3.34 ± 0.13 (333 K); 2.95 ± 0.12 (343 K); 2.65 ± 0.12 (353 K).

Take `C1COCCO1` [1,4-dioxane] + C[n+]1ccn(CCO)c1.O=S(=O)([O-])C(F)(F)C(F)(F)C(F)(F)C(F)(F)F: the activity coefficient is, setting by setting: (303 K) 1.67 ± 0.09; (313 K) 1.64 ± 0.09; (323 K) 1.61 ± 0.09; (333 K) 1.59 ± 0.09; (343 K) 1.56 ± 0.09; (353 K) 1.53 ± 0.09.

The values above are taken from the NIST ThermoML archive (doi:10.1021/acs.jced.8b00080).
